In patent US5610174A, “Use of α1A -selective adrenoceptor agonists for the treatment of urinary incontinence” (priority 1995, dated 1997):

Columns and labels:
[1] = target: T1, dog BN, female (α1-adrenoceptor) (Canis lupus, UniProt A0A8I3NK63); assay: Contractile study in isolated female dog bladder neck; conditions: for pEC50 Bladder Neck: agonist contraction; for pEC50 Bladder Neck / sensitivity of the contraction to prazosin, bladder neck: female dog bladder neck
T1 sequence (A0A8I3NK63 1-466): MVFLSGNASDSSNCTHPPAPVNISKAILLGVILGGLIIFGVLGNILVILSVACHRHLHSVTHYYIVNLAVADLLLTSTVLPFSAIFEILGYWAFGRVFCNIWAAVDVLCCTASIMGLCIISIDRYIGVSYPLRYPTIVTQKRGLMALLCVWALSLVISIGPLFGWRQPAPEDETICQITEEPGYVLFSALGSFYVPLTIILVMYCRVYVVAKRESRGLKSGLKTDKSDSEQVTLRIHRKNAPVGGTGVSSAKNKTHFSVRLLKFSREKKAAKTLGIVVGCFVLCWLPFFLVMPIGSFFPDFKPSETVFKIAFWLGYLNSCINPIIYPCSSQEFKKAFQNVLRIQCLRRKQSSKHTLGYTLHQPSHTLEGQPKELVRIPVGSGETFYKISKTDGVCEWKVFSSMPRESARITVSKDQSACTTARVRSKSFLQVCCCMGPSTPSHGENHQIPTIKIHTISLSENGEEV
Excerpt: (§1) In addition, similar studies were done using bladder neck tissue from female dogs. In order to identify the specific receptor subtype in each tissue, the pharmacological profile was compared to the profiles for these same drugs at the cloned human α1A, α1B, or α1C subtypes.
(§2) Tissue samples from the proximal urethra of male humans and male and female rabbits, as well as tissue samples from both the proximal urethra and bladder neck of male and female dogs were cut into transverse strips (3×10 mm) and suspended under 0.5 g tension in Krebs' physiological buffer at 37° C. To determine agonist potency (pEC50 )and antagonist affinity constants (pKB), concentration-effect curves to the non-selective agonist phenylepherine were constructed in the absence and in the presence of increasing concentrations of the antagonist. Up to four sequential curves were constructed in each tissue. Antagonists were allowed to equilibrate for 1h before each concentration-effect curve, and the drugs were completely washed out in between successive curves. In each experiment, one tissue served as a "time control", in which no antagonist was added so that changes in tissue sensitivity could be assessed as a function of time. […] In instances in which a single concentration of antagonist was used, pKB values were determined by the equation: […], where CR is defined as the ratio of the agonist EC50 in the presence of the antagonist to that in the absence of the antagonist.

[2] = target: T2, rat atrial β-adrenoceptors (Rattus norvegicus, UniProt P18090); assay: β-Adrenoceptor activity in isolated rat right atrium; conditions: vs isoprenaline, up to 100 μM; for Ki: read-out: pKi β (rat atrial β-adrenoceptors) (converted)
T2 construct: Right atria were removed from rats and placed immediately into oxygenated Krebs solution; from tissue; host or cells: isolated, spontaneously beating rat right atrium
Protocol: Determination of -Adrenoceptor Activity in the Isolated Rat Right Atrium
Right atria were removed from rats and placed immediately into oxygenated Krebs solution at 37° C. The Krebs solution was replaced three times at 5 min intervals and the tissues were tensioned three times to 0.5 g. In spontaneously beating atria, a control concentration effect curve to isoprenaline was generated. β-Adrenoceptor-mediated increase in atrial rate were measured as the response. […]. The antagonist effects of the test compounds were measured using the dose-ratio method, by comparing the shift in pEC50 for isoprenaline.

[3] = target: T3, human histamine H2 receptor (Homo sapiens, UniProt P25021); assay: Radioligand binding at cloned human histamine H2; conditions: [3H]tiotidine
T3 construct: expressed in transfected cells; host or cells: COS-7 (plasmid pcEXV-H2, ATCC 75345)
Protocol: Human Histamine H2 Receptor
The coding sequence of the human H2 receptor was obtained from a human placenta genomic library, and cloned into the cloning site of PCEXV-3 eukaryotic expression vector. The plasmid DNA for the H2 receptor is designated pcEXV-H2, and was deposited on Nov. 6, 1992 under ATCC Accession No. 75345. This construct was transfected into COS-7 cells by the DEAE-dextran method. Cells were harvested after 72 hours and lysed by sonication in 5 mM Tris-HCl, 5 mM EDTA, pH 7.5. The cell lysates were centrifuged at 1000 rpm for 5 min at 4° C., and the supernatant was centrifuged at 30,000×g for 20 min at 4° C. The pellet was suspended in 37.8 mM NaHPO4, 12.2 mM K2PO4, pH 7.5. The binding of the histamine H2 antagonist [3H] tiotidine (5 nM, specific activity: about 70 Ci/mM) was done in a final volume of 0.25 ml and incubated at room temperature for 60 min. Nonspecific binding was determined in the presence of 10 μM histamine. The bound radioligand was separated by filtration through GF/B filters using a cell harvester.

[4] = target: T4, dog BN, male (α1-adrenoceptor) (Canis lupus, UniProt A0A8I3NK63); assay: Contractile study in isolated male dog bladder neck; conditions: versus phenylephrine-induced contraction
T4 sequence (A0A8I3NK63 1-466): T1 sequence (A0A8I3NK63 1-466)
Excerpt: as §1, §2

[5] = target: T5, human urethra (α1-adrenoceptor) (Homo sapiens, UniProt P35348); assay: Contractile study in isolated human male urethra; conditions: versus phenylephrine-induced contraction; read-out: pKB Human Urethra Male (converted)
T5 construct: Tissue samples from the proximal urethra of male humans; from tissue; host or cells: human male proximal urethra strips
T5 sequence (P35348 1-466): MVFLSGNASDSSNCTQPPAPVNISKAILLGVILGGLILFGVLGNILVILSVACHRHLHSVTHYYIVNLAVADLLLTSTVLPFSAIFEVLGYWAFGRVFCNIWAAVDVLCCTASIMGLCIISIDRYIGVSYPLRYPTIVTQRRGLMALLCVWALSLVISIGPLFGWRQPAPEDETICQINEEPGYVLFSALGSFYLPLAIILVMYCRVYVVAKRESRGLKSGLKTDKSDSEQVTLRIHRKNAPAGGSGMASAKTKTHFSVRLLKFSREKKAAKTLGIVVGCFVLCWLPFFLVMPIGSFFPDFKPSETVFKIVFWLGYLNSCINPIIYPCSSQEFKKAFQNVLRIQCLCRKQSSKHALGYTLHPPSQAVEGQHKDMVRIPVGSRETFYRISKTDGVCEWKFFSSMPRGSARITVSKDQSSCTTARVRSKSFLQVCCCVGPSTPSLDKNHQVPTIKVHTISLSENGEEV
Excerpt: as §1, §2

T2 sequence (P18090 whole entry): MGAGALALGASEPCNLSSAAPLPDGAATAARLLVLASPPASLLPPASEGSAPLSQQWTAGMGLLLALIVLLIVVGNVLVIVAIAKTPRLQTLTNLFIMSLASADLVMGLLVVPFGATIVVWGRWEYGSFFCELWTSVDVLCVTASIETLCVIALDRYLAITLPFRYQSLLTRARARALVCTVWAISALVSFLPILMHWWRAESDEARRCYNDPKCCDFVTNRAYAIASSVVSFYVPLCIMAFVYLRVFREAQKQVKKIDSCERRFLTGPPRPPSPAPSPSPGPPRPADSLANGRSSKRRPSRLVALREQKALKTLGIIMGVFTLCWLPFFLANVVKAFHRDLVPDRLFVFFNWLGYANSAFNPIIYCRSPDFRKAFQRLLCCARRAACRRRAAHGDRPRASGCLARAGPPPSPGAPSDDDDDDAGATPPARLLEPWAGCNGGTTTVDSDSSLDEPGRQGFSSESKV
T3 sequence (P25021 whole entry): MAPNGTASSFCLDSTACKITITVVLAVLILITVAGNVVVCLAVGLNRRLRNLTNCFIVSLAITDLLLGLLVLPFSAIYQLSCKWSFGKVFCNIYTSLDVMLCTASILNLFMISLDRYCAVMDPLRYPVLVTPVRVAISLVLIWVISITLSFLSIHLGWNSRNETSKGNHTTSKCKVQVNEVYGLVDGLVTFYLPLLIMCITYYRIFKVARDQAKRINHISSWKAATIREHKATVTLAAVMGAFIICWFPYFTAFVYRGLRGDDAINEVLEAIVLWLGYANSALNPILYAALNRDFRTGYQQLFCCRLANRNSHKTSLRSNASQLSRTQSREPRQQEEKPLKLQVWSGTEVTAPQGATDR

Row | SMILES | pEC50 Bladder Neck [1] | sensitivity of the contraction to prazosin, bladder neck [1] | Ki [2] | pKB Dog BN Male [4] | Kb [5] | also measured
1 | CS(=O)(=O)Nc1c(O)ccc2c1CCCC2C1=NCCN1 (racemic) [Compound A-61603, (±)-N-[5-(4,5-Dihydro-1H-imidazol-2-yl)-2-hydroxy-5,6,7,8-tetra-hydronaphthalen-1-yl]methanesulfonamide] | 6.8 | highly sensitive to prazosin | > 100 µM | – | – | –
2 | COc1ccc(SC)c2c1C[C@@H]1[C@@H](C2)OCCN1C (relative stereo) [SDZ NVI-085, (±)-trans-4-Methyl-6-methoxy-9-thiomethoxy-3,4,4a, 5,10,10a-hexahydro-2H-naphtho[2,3-b][1,4]oxazine] | – | – | > 100 µM | – | – | Ki ([3]; read-out: pKi H2 (converted)): 6.31 µM
3 | COc1cc2c(cc1OC)CN(c1cc(N)c3cc(OC)c(OC)cc3n1)CC2 [Abanoquil, 2-(6,7-Dimethoxy-3,4-dihydro-1H-isoquinolin-2-yl)-6,7-dimethoxyquinolin-4-ylamine hemifumarate hydrate] | – | – | – | 8.6 | 0.000251 µM | –
4 | COc1ccccc1N1CCN(CCCNc2c(C)c(=O)n(C)c(=O)n2C)CC1 [Compound 5-MU] | – | – | – | 8.7 | 0.00158 µM | pKB Dog BN Female ([1]; versus phenylephrine-induced contraction): 8.8
5 | CNCCc1ccc(O)c(NS(C)(=O)=O)c1 [SK&F 102652] | 5.7 | highly sensitive to prazosin | – | – | – | pKi H2 [3]: 4.6; pKi β (rat atrial β-adrenoceptors) [2]: < 4
